# Results as given in patent publication US20160228586A1, “Compounds and Their Use for Preparation of Tau Imaging Agents and Tau Imaging Formulations” (ELI LILLY AND COMPANY, priority 2013, published 2016).
# Columns and labels:
# native tau aggregates = test: Film autoradiography of AD brain tissue sections; assay type: binding, human
# Protocol: Film autoradiography of AD Brain Tissue Sections are performed in a manner consistent with previously published methods (See Zhang, W., et al. F-18 stilbenes as PET imaging agents for detecting beta-amyloid plaques in the brain. Journal of Medicinal Chemistry, 48: 5980-5988, 2005, Zhang, W., et al. F-18 stilbenes as PET imaging agents for amyloid plaque imaging. Nucl Med Biol. 2007 34(1):89-97.)
# Postmortem AD diagnosed human brain sections (frontal lobe, 10 um) are covered with 0.5 ml of [^18F]T807 (in 2.5:2.5:95=DMSO:ethanol:1X-phospate buffered saline (PBS), about 20 uCi of [^18F]T807 per slide, and incubated for 60 minutes at room temperature. Then successive washing cycles are employed with 2 minutes of 1× PBS, 2 minutes of 30% ethanol/1× PBS, 2 minutes of 70% ethanol/1× PBS, and 2 minutes 1× PBS, to remove any unbound tracer. After drying under a fume hood, the sections are put on a FujiFilm radio-sensor cassette and exposed over night. The autoradiography signal is recorded in the radio-sensor sheet and is read/visualized with the FujiFilm Bio-Imaging System FLA-7000. Autoradiographic visualization of tau is observed in gray matter of postmortem AD brain tissue. See FIG. 2 which illustrates [^18F]T807 labeling of tau in post-mortem frontal lobe sections (10 um) of tau-positive human brain tissue from patients with AD, approximately 20 uCi of [^18F]T807 per slide. Strong autoradiography signal of [^18F]T807 is observed on the grey matter (GM) region, and the presence of tau in these regions are confirmed by tau-immunostaining. The non-specific or background [^18F]T807 signal is shown in the white matter region (WM) and is low.
# PHF-tau = conditions: cited from Alzheimer's & Dementia 2013; cited from earlier work
# [1] = Solubility of precursor in DMSO; assay type: physicochemical; conditions: no sonication or heating required
# Description: The solubility of the precursor compound affects the ability of the compound to get into solution so that a reaction to produce [^18F]T807 can effectively occur.
compound,measurement,setting,value
"Fc1ccc(-c2ccc3c(c2)[nH]c2ccncc23)cn1 [Example T807, 7-(6-fluoro-3-pyridyl)-5H-pyrido[4,3-b]indole, reference compound]",blocking of the [18F]T807 autoradiography signal (specificity for native tau aggregates),"native tau aggregates; 1 uM of cold T807, human AD brain sections",blocking effect
"[18F]c1ccc(-c2ccc3c(c2)[nH]c2ccncc23)cn1 [[^18F]T807, 7-(6-[^18F]fluoro-3-pyridyl)-5H-pyrido[4,3-b]indole]",affinity and selectivity to PHF-tau,PHF-tau,high
same,non-specific or background signal in the white matter region (WM),"native tau aggregates; post-mortem frontal lobe sections (10 um) of tau-positive human AD brain, about 20 uCi per slide",low
same,autoradiography signal on the grey matter (GM) region,"native tau aggregates; post-mortem frontal lobe sections (10 um) of tau-positive human AD brain, about 20 uCi per slide, 60 minutes at room temperature",Strong
"CC(C)(C)OC(=O)n1c2ccncc2c2ccc(-c3ccc([N+](C)(C)C)nc3)cc21.Cc1ccc(S(=O)(=O)[O-])cc1 [formula Ia, 5-(5-(tert-butoxycarbonyl)-5H-pyrido[4,3-b]indol-7-yl)-N,N,N-trimethylpyridin-2-aminium 4-methylbenzenesulfonate]",solubility in DMSO,[1],readily soluble
